“And” between values parts separate entries of the source, which are not always exact repeats. Equal entries are not always repeated.
Experiments:
[1] = biological target: T1, β-amyloid plaques (Homo sapiens, UniProt P05067); assay: In vitro autoradiographic binding to Tg2576 mouse hippocampal brain slices; parameters: representative of the amount of Aβ40 and Aβ42 plaque aggregates; from tissue; host or cells: hippocampal brain slices of 24-month old Tg2576 transgenic mice; species or system Tg2576 transgenic mice; details: for ratio of binding in plaque to non-plaque areas within the same slice: 10 μm hippocampal slice of 24-month old Tg2576 mouse
T1 sequence (P05067 672-713 limits assumed): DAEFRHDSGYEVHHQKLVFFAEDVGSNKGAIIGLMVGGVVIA
Method: (§1) In vitro studies of ^18F-FBM were carried out on coronal and horizontal mice brain slices (both wild-type and Tg 2576), which were obtained on a Leica 1850 cryotome. Mice brain-region slices (hippocampus and frontal cortex of 24-month old wild-type and Tg 2576; 10 μm thick) were preincubated in buffer (0.9% saline) for 10 minutes. Subsequently, the mice brain slices were incubated with ^18F-FBM (6.8 μCi/cc) in 0.9% saline, pH 7.4 at 37° C. for 1 hr. For nonspecific binding, brain slices were treated with 10 μM FDDNP. Slices were washed with cold millipore water, 70% alcohol, 90%, alcohol, 70% alcohol, and water for 2, 1, 1, 1, and 1 min, respectively. The slices were air dried then exposed overnight onto a phosphor screen and read by the Phosphor Autoradiographic Imaging System/Cyclone Storage Phosphor System (Packard Instruments Co). Regions of interest were drawn on various regions of the slices and the extent of binding of ^18F-FBM was computed as DLU/mm^2 using the OptiQuant acquisition and analysis program (Packard Instruments Co).
(§2) Similar experiments were carried out in adjacent slices using ^18F-FDDNP (7.8 μCi/cc) for comparison. For evaluating the amount of plaque present in the brain slices, adjacent brain slices were also stained for the peptide fragment Aβ17-24 which is representative of the amount of Aβ40 and Aβ42 plaque aggregates using reported 4G8 immunostaining methods of UCI-Institute for Brain Aging and Dementia (Head E, Moffat K, Das P, Sarsoza E, Poon W W, Landsberg G, Cotman C W, Muphy M P. (2005). Beta-amyloid deposition and tau phosphorylation in clinically characterized aged cats. Neurobiology of Aging 26(5): 749-763). Beta-amyloid deposition and tau phosphorylation in clinically characterized aged cats. Neurobiology of Aging 26(5): 749-763).
Hippocampal slice of 24-month old transgenic mouse (Tg2576, transgenic mice expressing mutant APP) stained for Aβ17-24 using 4G8 immunostaining confirmed presence of β-amyloid plaques found in Alzheimer's disease (FIGS. 1A and 2A depicting 10 μm thick horizontal hippocampal slice of 24-month old transgenic mouse (Tg2576) stained for Aβ17-24 using 4G8 immunostaining. Arrow indicates amyloid plaques.). Adjacent hippocampal slices radiolabeled with ^18F-FBM and ^18F-FDDNP indicated binding to amyloid plaques and corresponded to the 4G8 stain (FIGS. 1B and 2B depicting adjacent hippocampal slice shown in (A) but radiolabeled with high-specific activity ^18F-FBM or ^18F-FDDNP. Arrow indicates binding of ^18F-FBM or ^18F-FDDNP to the amyloid plaques and corresponds to the 4G8 stain.). The specific binding to amyloid plaques was reduced in the presence of 10 μM FDDNP (FIGS. 1C and 2C; FIG. 1C depicts adjacent hippocampal slice shown in (B) radiolabeled with high-specific activity ^18F-FBM in the presence of 10 μM FDDNP. Specific binding to regions containing plaques is reduced; and FIG. 2C depicts adjacent hippocampal slice in cold FDDNP. Specific binding to plaque regions is reduced). Alcohol was used for washing the medium to remove nonspecific binding. The ratio of binding in plaque to non-plaque areas within the same slice for ^18F-FBM was 2.1 while that for ^18F-FDDNP was 1.4; and in the presence of 10 μM FDDNP, these ratios went down to 1.6 and 1.2, respectively.

[2] = system: senile plaques and neurofibrillary tangles; assay: In vitro autoradiographic binding to triple transgenic mouse sagittal brain slices; parameters: species or system triple transgenic mice; details: for selectivity of binding to the plaques: triple transgenic mice brain slices
Method: as §1, §2
Sagittal brain slices of 18 month old triple transgenic mice were then studied. These mice have been known to have an extensive amount of senile plaques and neurofibrillary tangles accumulation in several regions of the brain. These regions include the hippocampus, cortex, thalamus, brain stem and other regions. Binding of ^18F-FBM and ^18F-FDDNP to 10 micron thick slices of triple transgenic mice brains is depicted in FIG. 3 along with antibody staining for plaques. More specifically, FIG. 3A depicts antibody staining in the hippocampus and frontal cortex regions, which was also confirmed by thioflavin S staining in an adjacent slice (shown in inset in FIG. 3A). […] Regions of the hippocampus and the frontal cortex (arrows pointing) that contain the plaques are clearly evident.
The binding of ^18F-FBM in the various plaque containing regions was also quantitatively evaluated as a ratio plot shown in FIGS. 4A and 4B. Cerebellum and striatum were used as reference regions. […] The ratio between the frontal cortex regions showing plaques was between 6 and 7 while the hippocampus was between 3.5 and 4.5 as can be taken from FIG. 4A. […] On the other hand, in the case of ^18F-FDDNP, the binding ratios with respect to cerebellum were 1.5 and 2.0 as can be taken from FIG. 4B.

[3] = Relative lipophilicity from reverse-phase HPLC elution order; type: physicochemical; details: elutes first
Method: For the radiosynthesis step, high specific activity ^18F-fluoride (approximately 100 milliCurie) was produced in the MC-17 cyclotron. Fluorine-18 radioactivity count was measured in a Capintec dose calibrator, while low-level counts were measured out in a well-counter (Cobra Quantum, Packard Instruments Co). Direct radiolabeling of the tosylate precursor was done by using ^18F-fluoride in a solution of 19 mg of Kryptofix 2.2.2 and 0.75 mg potassium carbonate in acetonitrile. The mixture was heated at 85° C. for 20 minutes. After cooling, the mixture was transferred onto a neutral alumina Sep-Pak Cartridge to remove unreacted ^18F-fluoride. Chromatographic separations were preformed on semi-preparative reverse-phase C18 column (length=[…], ID=4.6 mm) using the Gilson high performance liquid chromatography (HPLC) systems. Decay-corrected radiochemical yield was approx. 20%. Retention time of ^18F-FBM was 14 mins compared to 15.7 mins for ^18F-FDDNP (for separation protocol, see e.g., Agdeppa E D et al. (2001) Binding Characteristics of Radiofluorinated 6-Dialkylamino-2-Naphthylethylidene Derivatives as Positron Emission Tomography Imaging Probes for Beta-Amyloid Plaques in Alzheimer's Disease. The Journal of Neuroscience 21, 1-5). ^18F-FBM was collected and prepared for in vitro binding studies. […]

[4] = biological target: T1, β-amyloid plaques; assay: In vitro autoradiographic binding of 18F-FPCUR to transgenic mice brain slices; parameters: from tissue; host or cells: sagittal brain sections of Tg 2576 and 3×Tg transgenic mice, 1 to 24 months; species or system transgenic mice (Tg 2576 and 3×Tg)
Method: Preliminary binding to rat brain slices of ^18F-fluoropropyl curcumin was carried out at 37° C. in Tris buffer, 50 mM, pH 7.4 for one hour, and further testing of ^18F-FPCUR for binding to β-amyloid plaques was carried out transgenic mice brains. […] Brain slices were pre-incubated for 10 mins in incubation buffer, 0.1 M Tris, 0.1 M NaCl, 0.5% Tween and 0.1% BSA, pH 7.4. Incubation was carried out in 0.1 M Tris, 0.1 M NaCl, 0.5% Tween and 0.1% BSA, pH 7.4 with ^18F-FPCUR (3 μCi/cc) at 37° C. for 1 hr. […] Slices were washed with cold buffer, 2×2 min, rinsed with cold water and air dried. Autoradiograms were obtained of various slices and binding of ^18F-FPCUR was quantitated using Optiquant Image analysis program. […] For evaluating the amount of plaque present in the brain slices, adjacent brain slices were also stained using reported immunostaining methods.

## CC(/C=C/c1ccc(N(C)CC[18F])cc1)=C(C#N)C#N [18F-FBM, 4′-[(2-[^18F]fluoroethyl)(methyl)amino]-4-phenyl-3-buten-2-malonitrile]
[1]; in the presence of 10 μM FDDNP
  ratio of binding in plaque to non-plaque areas within the same slice: 1.6
[1]; no competitor
  ratio of binding in plaque to non-plaque areas within the same slice: 2.1
[1]; Tg2576 hippocampal slices
  specific binding to amyloid plaque regions compared to 18F-FDDNP: higher specific binding
[2]
  selectivity of binding to the plaques: selective binding
[3]
  lipophilicity relative to 18F-FDDNP: less lipophilic

## CC(=C(C#N)C#N)c1ccc2cc(N(C)CC[18F])ccc2c1 [18F-FDDNP, 2-(1-{6-[(2-[^18F]fluoroethyl)(methyl)amino]-2-naphtyl}ethylidene)malonitrile]
[1]; in the presence of 10 μM FDDNP
  ratio of binding in plaque to non-plaque areas within the same slice: 1.2
[1]; no competitor
  ratio of binding in plaque to non-plaque areas within the same slice: 1.4
[2]; 18 month old triple transgenic mice, FIG. 4B
  binding ratios with respect to cerebellum: 1.5 and 2.0
[2]
  selectivity of binding to the plaques: less selective
[2]; triple transgenic mice, FIG. 3D
  binding in the cerebellum (no significant amount of plaques): significant amount of binding

## COc1cc(/C=C/C(=O)CC(=O)/C=C/c2ccc(OCCC[18F])c(OC)c2)ccc1O [18F-FPCUR, ^18F-fluoropropylcurcumin]
[4]; FIG. 7
  binding in the cerebellum (CB): little binding
[4]; older transgenic mice
  binding in older transgenic mice: Increased binding

## COc1cc(/C=C/C(=O)CC(=O)/C=C/c2ccc(O)c(OC)c2)ccc1O [Curcumin]
[4]; 10 μM competitor
  displacement of 18F-FPCUR binding by competitor: displaced

## CC(C=Cc1ccc(N(C)CCF)cc1)=C(C#N)C#N [FBM]
[2]; FBM (1 mM), FIG. 3F
  effect of competitor on binding of 18F-FDDNP in the hippocampus: reduced

## CC(=C(C#N)C#N)c1ccc2cc(N(C)CCF)ccc2c1 [FDDNP]
[2]; 1 μM FDDNP, FIG. 3E
  effect of competitor on selective binding of 18F-FBM to plaque regions: significantly reduced
